Data from paper PMC6631462, “Quaternary Ammonium Leucine-Based Surfactants: The Effect of a Benzyl Group on Physicochemical Properties and Antimicrobial Activity” (Pharmaceutics, 2019).
Several values for one entry are separate records, joined by “and”; a condition that tells them apart may be missing. Identical values can stand only once. Like-named read-outs stand apart in the source and are kept apart here.

Assays:
[1] = Surface tension measurements (De Nouy ring tensiometry); type: physicochemical; conditions: for 10^6 Γmax (surface excess concentration): Gibbs equation from tensiometry; for 10^6 Γmax (surface excess concentration) / CMC / γCMC (surface tension at CMC): 25 °C; for 10^6 Γmax (surface excess concentration) / Amin (area per molecule at water–air interface): mean ± SD; for Amin (area per molecule at water–air interface): derived from Γmax; for CMC / γCMC (surface tension at CMC): ultrapure water, tensiometry, mean ± SD of three replicates
Method: Different concentrations for each surfactant were prepared by dissolving the compounds in ultrapure water. Their ability to decrease air–water surface tension was studied at 25 °C using a DCA-100 tensiometer (First Ten Angstrom, Portsmouth, VA, USA) according to the De Nouy ring method. Each recorded surface tension value was the mean of three consecutive measurements. The ‘breakpoint’ of the plot of surface tension versus concentration of surfactant was used to calculate the critical micelle concentration (CMC, i.e., the minimum concentration at which surfactants aggregate to form micelles) and the surface tension at CMC (γCMC). The “breakpoint” is the point of intersection of the two lines fitting the experimental data by a linear regression model (Prism version 5.0, GraphPad Inc., San Diego, CA, USA). Tensiometric measurements allowed for the calculation of an additional two parameters related to the surface behaviour of surfactants. The first is the ‘surface excess concentration’, Γmax, which is a measure of how many surfactant molecules are adsorbed at the air–water interface, which was calculated using the Gibbs equation:(1) Γmax=1/2.303 nRT (δγ/δlogC) where R is the gas constant (8.314 J/mol K); T is the absolute temperature (K); n is equal to 1 for single chain ionic surfactants displaying only one ionisable group; and dγ/d log C can be calculated from the slope of the straight section before the CMC in the plot of surface tension versus concentration of the surfactant.
The other parameter is the area occupied by a single molecule of surfactant at the water–air interface (As), and is derived from Γmax through the equation:(2) Amin= 10^18/NΓmax.
All analyses were performed in triplicate.

[2] = system: Caco-2 cells; experiment: MTS cytotoxicity assay on Caco-2 cells; type: cell-based; conditions: Caco-2, concentration causing 50% reduction of viable cells, mean ± SD
Method: (§1) Colorectal-carcinoma-derived epithelial Caco-2 cells (European Collection of Cell Cultures) and airway epithelial Calu-3 cells (American Type Culture Collection; ATCC) were cultured in DMEM supplemented with 10% of FBS and 1% of an antibiotic–antimycotic mixture. Erythrocytes were collected from mice blood. The cytotoxicity of the N-benzyl quaternary ammonium surfactants derived from leucine in comparison to the commercial BAC was studied by performing two cytotoxicity assays (MTS and LDH as indicators of metabolic activity and membrane integrity, respectively) and by a haemolytic assay. The assays were conducted as reported in our previous publications. EC50 values from the MTS assay (concentration of surfactant that causes 50% cell death) and the LDH assay (concentration of surfactants that causes 50% LDH release from cells), as well as HC50 values from the haemolytic assay (concentration of surfactants that causes 50% haemoglobin release from erythrocytes) were calculated using a nonlinear regression model (Prism version 5.0, GraphPad Inc., San Diego, CA, USA) as follows:(3) Y=BOTTOM+Top−Bottom/1+10^(LogEC50−x) Hill Slope where Top and Bottom are plateaux in the units of the Y axis.

[3] = system: Calu-3 cells; experiment: MTS cytotoxicity assay on Calu-3 cells; type: cell-based; conditions: Calu-3, concentration causing 50% reduction of viable cells, mean ± SD
Method: as §1

[4] = system: Caco-2 cells; experiment: LDH release assay on Caco-2 cells; type: cell-based; conditions: Caco-2, concentration causing 50% LDH release, mean ± SD
Method: as §1

[5] = system: Calu-3 cells; experiment: LDH release assay on Calu-3 cells; type: cell-based; conditions: Calu-3, concentration causing 50% LDH release, mean ± SD
Method: as §1

[6] = system: erythrocytes; experiment: Haemolytic assay; type: cell-based, mice; conditions: concentration causing 50% haemoglobin release from erythrocytes, mean ± SD
Method: as §1

[7] = system: Enterococcus faecalis ATCC 29212; experiment: Antimicrobial assay, MIC determination (EUCAST); type: cell-based; conditions: for Selectivity index EC50/MIC: MIC E. faecalis; for MIC: E. faecalis
Method: (§2) Bacterial strains were cultured overnight at 35–36 °C in blood agar plates. Minimum inhibitory concentrations (MICs) were determined according to previous reports and following protocols defined by the European Committee on Antimicrobial Susceptibility Testing (EUCAST). MICs against Candida albicans were determined using a similar protocol with some adaptations to the yeast growth and requirements. All tests were done in triplicate. [table]

[8] = system: Escherichia coli ATCC 25922; experiment: Antimicrobial assay, MIC determination (EUCAST); type: cell-based; conditions: for Selectivity index EC50/MIC: MIC E. coli; for MIC: E. coli
Method: as §2

[9] = system: Pseudomonas aeruginosa ATCC 27853; experiment: Antimicrobial assay, MIC determination (EUCAST); type: cell-based; conditions: for Selectivity index EC50/MIC: MIC P. aeruginosa; for MIC: P. aeruginosa
Method: as §2

[10] = system: Staphylococcus aureus ATCC 25923; experiment: Antimicrobial assay, MIC determination (EUCAST); type: cell-based; conditions: for Selectivity index EC50/MIC: MIC S. aureus; for MIC: S. aureus
Method: as §2

[11] = system: Candida albicans ATCC 24433; experiment: Antimicrobial assay, MIC determination (adapted to yeast); type: cell-based; conditions: for MIC: C. albicans; for Selectivity index EC50/MIC: MIC C. albicans
Method: as §2

[12] = Enterococcus faecalis, ATCC29212, read-out: MIC
[13] = Escherichia coli, ATCC25922, read-out: MIC
[14] = Pseudomonas aeruginosa, ATCC27853, read-out: MIC
[15] = Staphylococcus aureus, ATCC25923, read-out: MIC
[16] = Candida albicans, ATCC24433, read-out: MIC

Compound	10^6 Γmax (surface excess concentration) [1]	Amin (area per molecule at water–air interface) [1]	CMC [1]	γCMC (surface tension at CMC) [1]	EC50 ([2]; Homo sapiens)	EC50 ([3]; Homo sapiens)	EC50 ([4]; Homo sapiens)	EC50 ([5]; Homo sapiens)	Haemolysis HC50 [6]	Selectivity index EC50/MIC ([7]; EC50 from MTS assay on Calu-3)	MIC [7, 12]	Selectivity index EC50/MIC ([8]; EC50 from MTS assay on Caco-2)	Selectivity index EC50/MIC ([8]; EC50 from MTS assay on Calu-3)	MIC [8, 13]	Selectivity index EC50/MIC ([9]; EC50 from MTS assay on Caco-2)	Selectivity index EC50/MIC ([9]; EC50 from MTS assay on Calu-3)	Selectivity index EC50/MIC ([10]; EC50 from MTS assay on Caco-2)	Selectivity index EC50/MIC ([10]; EC50 from MTS assay on Calu-3)	Selectivity index EC50/MIC ([11]; EC50 from MTS assay on Caco-2)	Selectivity index EC50/MIC ([11]; EC50 from MTS assay on Calu-3)	other results
CCCCCCCCCCOC(=O)C(CC(C)C)[N+](C)(C)Cc1ccccc1 (stereo not shown) [C10 LEU BENZ]	6.76 ± 0.22 mol/m^2	24.09 ± 1.45 A^2	1.88 ± 0.16 mM	around 30 mN/m and 31.75 ± 0.09 mN/m	160 ± 7 µM	117 ± 5 µM	158 ± 15 µM	187 ± 24 µM	0.148 ± 0.018 mM	15.2	4 µg/mL and 7.7 µM	1.3	0.9	64 µg/mL and 124 µM	0.6	0.5	42.1	30.8	1.3	0.9	MIC [9, 14]: > 128 µg/mL and > 248 µM; MIC [10, 15]: 2 µg/mL and 3.8 µM; MIC [11, 16]: 124 µM and 64 µg/mL
CCCCCCCCCCCCOC(=O)C(CC(C)C)[N+](C)(C)Cc1ccccc1 (stereo not shown) [C12 LEU BENZ]	6.10 ± 0.24 mol/m^2	27.27 ± 1.34 A^2	around 1 mM and 0.92 ± 0.11 mM	~40 mN/m and 40.38 ± 0.13 mN/m	16 ± 3 µM	11 ± 2 µM	19 ± 2 µM	19 ± 3 µM	0.054 ± 0.004 mM	1.0	4 µg/mL to 8 µg/mL and 10.6 µM	0.3	0.2	32 µg/mL and 58.6 µM	0.07	0.05	1.5	1.0	0.5	0.4	Selectivity index EC50/MIC ([7]; EC50 from MTS assay on Caco-2): 1.5; MIC [9, 14]: 128 µg/mL and 235 µM; MIC [10, 15]: 4 µg/mL to 8 µg/mL and 10.6 µM; MIC [11, 16]: 29.3 µM and 16 µg/mL
CCCCCCCCCCCCCCOC(=O)C(CC(C)C)[N+](C)(C)Cc1ccccc1 (stereo not shown) [C14 LEU BENZ]	7.39 ± 0.31 mol/m^2	22.46 ± 1.11 A^2	0.12 ± 0.08 mM	~40 mN/m and 40.35 ± 0.11 mN/m	13 ± 2 µM	14 ± 2 µM	12 ± 2 µM	14 ± 2 µM	0.027 ± 0.006 mM	4.0	2 µg/mL and 3.5 µM	0.5	0.5	16 µg/mL and 27.9 µM	0.06	0.06	5	5.4	0.9	1.0	Selectivity index EC50/MIC ([7]; EC50 from MTS assay on Caco-2): 3.7; MIC [9, 14]: 128 µg/mL and 223 µM; MIC [10, 15]: 1 µg/mL to 2 µg/mL and 2.6 µM; MIC [11, 16]: 13.9 µM and 8 µg/mL
Benzalkonium chloride [BAC, reference compound]	5.35 ± 0.27 mol/m^2	31.08 ± 1.60 A^2	around 1 mM and 1.02 ± 0.06 mM	around 30 mN/m and 31.16 ± 0.05 mN/m	–	–	–	–	0.064 ± 0.004 mM	7.7	–	2.9	1.9	–	0.4	0.2	11.5	7.7	2.9	1.9	EC50 [2]: 33 ± 1 µM; EC50 [3]: 22 ± 5 µM; EC50 [4]: 48 ± 4 µM; EC50 [5]: 29 ± 5 µM; MIC [7]: 1 mg/L; MIC ([7]; read-out: MIC): 2.9 µM; Selectivity index EC50/MIC ([7]; EC50 from MTS assay on Caco-2): 11.5; MIC [8]: 4 mg/L; MIC ([8]; read-out: MIC): 11.5 µM; MIC [9]: 32 mg/L; MIC ([9]; read-out: MIC): 91.8 µM; MIC [10]: 1 mg/L; MIC ([10]; read-out: MIC): 2.9 µM; MIC [11]: 4 mg/L; MIC ([11]; read-out: MIC): 11.5 µM
